# In patent US10602758B2, “Methods and compositions for improved taste quality” (Almendra Pte. Ltd, priority 2018, dated 2020):
# Peptide text beside a SMILES is read from it.
# Assays:
# [1] = cited from earlier work; for Kd, apparent Sweetener/Receptor dissociation constant / Rm, Maximal Response: from R = Rm x C/(kd + C)
# [2] = tested on: human taste testers; assay: Sensory flavor profile analysis, Example 3.1: KCl, MgCl2 or CaCl2 individually at <12 mM with REBA in Citric Acid Buffer (Table 7); format: in vivo; conditions: used individually at <12 mM
# Experimental: (§1) Representative formulations within the scope of the disclosed formulations were prepared and subjected to sensory testing by the methods described above in the section entitled Testing Methodology, where formulations are rated on a 0-15 scales for the Taste Attributes: Sweetness Intensity (SI), Saltiness Intensity (SaI), Sourness Intensity (SoI), Bitterness Intensity (BI), Astringency Intensity (AI), Body/Mouthfeel Intensity (B/MF) and Sweetness Linger (SL). And, in addition, formulations are rated for the additional Taste Attributes of Sweetness Appearance Time (AT) and Sweetness Desensitization (SD). AT was rated by the verbal descriptors Rapid (R), Delay (D) or SD (Significant Delay) and SD was rated by the verbal descriptors None (N), Slight (S) or Medium (M). In sensory test sessions, the number of samples evaluated was limited to 6. In the initial phase of formulation screening, testing was carried out in triplicate with a single subject extensively experienced in the technique of flavor profile analysis. Following formulation screening, testing on promising formulations was carried out with a trained panel as described above. […]
# This study assessed the effect of K^+, Mg^2+, and Ca^2+ (from KCl, MgCl2, and CaCl2 salts) used individually in a disclosed Taste Modulator Composition on the Appearance Time (AT), Sweetness Linger (SL), Body/Mouthfeel (B/MF) and Sweetness Desensitization (SD) of REBA in Citric Acid Buffer at moderate concentrations (i.e., <12 mM).
# [3] = tested on: human taste testers; assay: Sensory flavor profile analysis, Example 3.2: KCl, MgCl2 or CaCl2 individually at 20 mM with REBA in Citric Acid Buffer (Table 8); format: in vivo; conditions: used individually at 20 mM
# Experimental: as §1
# This study assessed the effect of K^+, Mg^2+, and Ca^2+ (from KCl, MgCl2, and CaCl2 salts) used individually at 20 mM in a disclosed Taste Modulator Composition on the Appearance Time (AT), Sweetness Linger (SL), Body/Mouthfeel (B/MF) and Sweetness Desensitization (SD) of REBA in Citric Acid Buffer.
# [4] = tested on: human taste testers; assay: Sensory flavor profile analysis, Example 3.3: KCl, MgCl2 or CaCl2 individually at 30 mM with REBA in Citric Acid Buffer (Table 9); format: in vivo; conditions: used individually at 30 mM
# Experimental: as §1
# This study assessed the effect of K^+, Mg^2+, and Ca^2+ (from KCl, MgCl2, and CaCl2 salts) used individually at 30 mM in a disclosed Taste Modulator Composition on the Appearance Time (AT), Sweetness Linger (SL), Body/Mouthfeel (B/MF) and Sweetness Desensitization (SD) of REBA in Citric Acid Buffer.
# [5] = cited from earlier work; for sweetness potency: relative to sucrose; for sweetness potency (sensory evaluations): more potent than sucrose, Crammer and Ikan 1986
# [6] = Concentration/Response (C/R) function of sweeteners; format: in vivo
# Source text: In discussion of mid-calorie beverages, it is useful to describe a suitable methodology for definition of the compositions of such caloric/non-caloric sweetener blends. One such system is a previously described Concentration/Response (C/R) function useful for many caloric as well as non-caloric sweeteners (see G. E. DuBois, et al., “A Systematic Study of Concentration-Response Relationships of Sweeteners”, In Sweeteners: Discovery, Molecular Design and Chemoreception, D E Walters, F Orthoefer and G E DuBois, Eds., ACS Symposium Series 450, ACS Books, Washington, D.C., 1990).
# The following example serves to show how the C/R function can be utilized in design of a mid-caloric beverage. Assume that the objective is to formulate a 50% calorie-reduced beverage with a blend of sucrose and REBA, where the original full-calorie beverage contained 10.0% sucrose. Assuming there is no synergy between sucrose and REBA, such a blend would require 5.0% sucrose and a concentration of REBA equivalent to 5.0% sucrose in sweetness. The requisite concentration (C) of REBA is easily calculated from its C/R function R=10C/(200+C) as follows: 5.0=10×C/(200+C); and C=200 mg/L.
# [7] = tested on: human taste testers; assay: Sensory Testing Methodology: Sweetness Linger of reference standards in water; format: in vivo; conditions: 10% Sucrose and 500 PPM REBA, perceived sweetness intensity @ 120 sec
# Source text: In various aspects, the present disclosure pertains to methods of testing the disclosed sweetener compositions, e.g., a sensory methodology or method for sweetener evaluation. In a particular aspect, the sensory methodology used is known as a “Flavor Profile Analysis” as has been previously described (see: B. T. Carr, S. D. Pecore, K. M. Gibes and G. E. DuBois, “Sensory Methods for Sweetener Evaluation”, Chapter 11 In Flavor Measurement, C. T. Ho and C. H. Manley, Eds., Marcel Dekker, New York, N.Y., 1993). The full set of sensory parameters that are assessed in the sensory testing method are: (a) Sweetness Intensity (which can be abbreviated in tables herein as “S”); (b) Sourness Intensity ((which can be abbreviated in tables herein as “So”); (c) Saltiness Intensity (which can be abbreviated in tables herein as “Sa”); (d) Bitterness Intensity (which can be abbreviated in tables herein as “B”); (e) Body/Mouthfeel Intensity (which can be abbreviated in tables herein as “B/MF”); (f) Astringency Intensity (which can be abbreviated in tables herein as “A”); (g) Sweetness Linger (which can be abbreviated in tables herein as “SL”); (h) Sweetness Appearance Time (which can be abbreviated in tables herein as “AT”); and (i) Sweetness Desensitization (which can be abbreviated in tables herein as “SD”). […]
# [8] = Dissolution of solid REBD in CAB-K buffer, visual inspection; format: physicochemical; conditions: 500 PPM in pH 3.1 CAB-K; after standing overnight (about 20 h)
molecule,measurement,setting,value
CC1=CC(=O)[N-]S(=O)(=O)O1.[K+] [Acesulfame-K],"Kd, apparent Sweetener/Receptor dissociation constant",[1],470 µg/mL
same,"Rm, Maximal Response",[1],11.6 Sucrose Equivalents of Sweetness
COC(=O)[C@H](Cc1ccccc1)NC(=O)[C@@H](N)CC(=O)O [Aspartame] (H-Asp-Phe-OMe),"Kd, apparent Sweetener/Receptor dissociation constant",[1],560 µg/mL
same,"Rm, Maximal Response",[1],16.0 Sucrose Equivalents of Sweetness
"[Ca+2].[Cl-].[Cl-] [Ca^2+, Calcium Chloride]","effect on the AT, SL, B/MF and SD of REBA",[2],did not significantly affect
same,"effect on the AT, SL, B/MF and SD of REBA",[3],modestly affected
same,"effect on the AT, SL, B/MF and SD of REBA",[4],do affect
C=C1C[C@@]23CC[C@H]4[C@@](C)(CCC[C@@]4(C)C(=O)O[C@@H]4O[C@H](CO)[C@@H](O)[C@H](O)[C@H]4O)[C@@H]2CC[C@]1(O[C@@H]1O[C@H](CO)[C@@H](O)[C@H](O)[C@H]1O[C@@H]1O[C@@H](C)[C@H](O)[C@@H](O)[C@H]1O)C3 [Dulcoside A],sweetness potency,[5],30 times
"[Cl-].[K+] [K^+, Potassium Chloride]","effect on the AT, SL, B/MF and SD of REBA",[2],did not significantly affect
same,"effect on the AT, SL, B/MF and SD of REBA",[3],modestly affected
same,"effect on the AT, SL, B/MF and SD of REBA",[4],do affect
"[Cl-].[Cl-].[Mg+2] [Mg^2+, Magnesium Chloride]","effect on the AT, SL, B/MF and SD of REBA",[2],did not significantly affect
same,"effect on the AT, SL, B/MF and SD of REBA",[3],modestly affected
same,"effect on the AT, SL, B/MF and SD of REBA",[4],do affect
C=C1C[C@@]23CC[C@H]4[C@@](C)(CCC[C@@]4(C)C(=O)O[C@@H]4O[C@H](CO)[C@@H](O)[C@H](O)[C@H]4O)[C@@H]2CC[C@]1(O[C@@H]1O[C@H](CO)[C@@H](O)[C@H](O[C@@H]2O[C@H](CO)[C@@H](O)[C@H](O)[C@H]2O)[C@H]1O[C@@H]1O[C@H](CO)[C@@H](O)[C@H](O)[C@H]1O)C3 [Rebaudioside A],sweetness intensity equivalent,"[6]; 500 mg/L REBA, from C/R function R=10.0C/(200+C)",7.14 % sucrose
same,requisite concentration (C) equivalent to 5.0% sucrose in sweetness,[6]; calculated from C/R function R=10C/(200+C),200 mg/L
same,SL (Sweetness Linger),[7],5
same,sweetness potency (sensory evaluations),[5],350-450 times
same,"Kd, apparent Sweetener/Receptor dissociation constant",[1],200 µg/mL
same,"Rm, Maximal Response",[1],10 Sucrose Equivalents of Sweetness
C=C1C[C@@]23CC[C@H]4[C@@](C)(CCC[C@@]4(C)C(=O)O[C@@H]4O[C@H](CO)[C@@H](O)[C@H](O)[C@H]4O[C@@H]4O[C@H](CO)[C@@H](O)[C@H](O)[C@H]4O)[C@@H]2CC[C@]1(O[C@@H]1O[C@H](CO)[C@@H](O)[C@H](O[C@@H]2O[C@H](CO)[C@@H](O)[C@H](O)[C@H]2O)[C@H]1O[C@@H]1O[C@H](CO)[C@@H](O)[C@H](O)[C@H]1O)C3 [Rebaudioside D],appearance of solution,[8],still cloudy
C=C1C[C@@]23CC[C@H]4[C@@](C)(CCC[C@@]4(C)C(=O)O[C@@H]4O[C@H](CO)[C@@H](O)[C@H](O)[C@H]4O)[C@@H]2CC[C@]1(O[C@@H]1O[C@H](CO)[C@@H](O)[C@H](O)[C@H]1O[C@@H]1O[C@H](CO)[C@@H](O)[C@H](O)[C@H]1O)C3 [Stevioside],sweetness potency,[5],110-270 times
"OC[C@H]1O[C@@](CO)(O[C@H]2O[C@H](CO)[C@@H](O)[C@H](O)[C@H]2O)[C@@H](O)[C@@H]1O [Sucrose, reference compound]",C/R Function,"[1]; R in Sucrose Equivalents of Sweetness, C in % (w/v) for sugars, in mg/L for HP sweeteners",R = C
"C[C@H](CC[C@@H](O[C@@H]1O[C@H](CO[C@@H]2O[C@H](CO)[C@@H](O)[C@H](O)[C@H]2O)[C@@H](O)[C@H](O)[C@H]1O[C@@H]1O[C@H](CO)[C@@H](O)[C@H](O)[C@H]1O)C(C)(C)O)[C@H]1CC[C@@]2(C)[C@@H]3CC=C4[C@@H](CC[C@H](O[C@@H]5O[C@H](CO[C@@H]6O[C@H](CO)[C@@H](O)[C@H](O)[C@H]6O)[C@@H](O)[C@H](O)[C@H]5O)C4(C)C)[C@]3(C)[C@H](O)C[C@]12C [mogroside V, mogro-3-O-[β-D-glucopyranosyl (1-6)-β-D-glucopyranoside]-24-O-{[β-D-glucopyranosyl(1-2)]-[?-D-glucopyranosyl(1-6)]-β-D-gluco-pyranoside}]",sweetness,"[5]; times cane sugar on a weight basis, estimated",approximately 250 times
Rebaudioside B,sweetness potency (sensory evaluations),[5],300-350 times
Rebaudioside C,sweetness potency,[5],40-60 times
